Article PMC4225009, “Structure-activity-relationship study of N-acyl-N-phenylpiperazines as potential inhibitors of the Excitatory Amino Acid Transporters (EAATs): improving the potency of a micromolar screening Hit is not truism” (SpringerPlus, 2013)
Read-outs that look alike come from different tables or passages of the source.

How the values were obtained:
human EAAT1 = target: T1, human EAAT1 (Homo sapiens, UniProt P43003); assay: [3H]-D-aspartate uptake assay at HEK293 cells stably expressing human EAAT1; type: cell-based
T1 construct: expressed in transfected cells
T1 sequence (P43003 whole entry): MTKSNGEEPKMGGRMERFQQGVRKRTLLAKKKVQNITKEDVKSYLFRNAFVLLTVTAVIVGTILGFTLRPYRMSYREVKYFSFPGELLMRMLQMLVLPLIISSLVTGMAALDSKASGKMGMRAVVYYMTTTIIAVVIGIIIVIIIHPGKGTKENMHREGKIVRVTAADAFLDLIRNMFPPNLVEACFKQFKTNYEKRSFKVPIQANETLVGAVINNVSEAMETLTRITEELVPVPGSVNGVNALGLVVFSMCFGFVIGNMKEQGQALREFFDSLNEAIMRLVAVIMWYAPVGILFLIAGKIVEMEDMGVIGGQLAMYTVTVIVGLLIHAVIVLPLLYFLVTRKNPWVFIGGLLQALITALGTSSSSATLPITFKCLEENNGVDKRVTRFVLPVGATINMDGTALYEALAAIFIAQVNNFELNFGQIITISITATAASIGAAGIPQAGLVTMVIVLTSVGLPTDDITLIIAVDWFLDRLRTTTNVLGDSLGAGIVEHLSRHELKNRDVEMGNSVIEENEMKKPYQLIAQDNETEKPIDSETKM
Excerpt: (§1) In total, […] piperazine analogs 2.1-2.40 and 3.1-3.12 were characterized pharmacologically at stable HEK293 cells expressing human EAAT1-3 in a [^3H]-D-aspartate uptake assay, (Jensen & Bräuner-Osborne [2004]) and the results are summarized in Table 1 and Table 2. […] Usually, such findings would lead to the conclusion that the bicyclo-[2.2.1]-heptanyl group occupies a promiscuous hydrophobic pocket, which could be optimized for increased potency. However, upon increasing or decreasing the hydrophobic bulk and/or flexibility, a clear drop in potency was observed (analogs 2.1-2.17, Table 1). […] These findings could open up for the hypothesis that the pocket is indeed not hydrophobic but instead hydrophilic in nature. Upon binding of the hydrophobic alkane group, water molecules are forced out and ligand binding is entropically driven rather than enthalpically. Thus analogs 2.18-2.31, which comprise a hydrophobic group, could be potential inhibitors.
(§2) Analogs 2.22-2.31, 2.36-2.40, 3.3, 3.4, 3.6 and 3.12 were obtained as 5 mg portions pre-dissolved in DMSO from ChemBridge corporation and used directly in the [3H]-Asp-uptake assay.

human EAAT3 = target: T2, human EAAT3 (Homo sapiens, UniProt P43005); assay: [3H]-D-aspartate uptake assay at HEK293 cells stably expressing human EAAT3; type: cell-based
T2 construct: expressed in transfected cells
T2 sequence (P43005 1-524): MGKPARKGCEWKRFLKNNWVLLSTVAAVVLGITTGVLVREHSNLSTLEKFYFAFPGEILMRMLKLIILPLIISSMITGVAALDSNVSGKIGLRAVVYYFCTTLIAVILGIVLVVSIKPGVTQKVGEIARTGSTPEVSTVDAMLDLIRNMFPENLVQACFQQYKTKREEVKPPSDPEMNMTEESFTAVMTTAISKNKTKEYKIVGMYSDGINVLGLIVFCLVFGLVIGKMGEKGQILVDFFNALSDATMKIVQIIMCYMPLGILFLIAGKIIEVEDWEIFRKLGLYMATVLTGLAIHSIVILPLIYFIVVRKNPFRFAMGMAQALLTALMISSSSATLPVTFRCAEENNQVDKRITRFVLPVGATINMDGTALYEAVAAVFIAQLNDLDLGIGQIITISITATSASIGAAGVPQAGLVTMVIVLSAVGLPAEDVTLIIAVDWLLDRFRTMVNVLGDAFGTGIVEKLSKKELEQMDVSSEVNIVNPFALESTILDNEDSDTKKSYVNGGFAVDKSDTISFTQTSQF
Excerpt: as §1, §2

human EAAT2 = target: T3, human EAAT2 (Homo sapiens, UniProt P43004); assay: [3H]-D-aspartate uptake assay at HEK293 cells stably expressing human EAAT2; type: cell-based
T3 construct: expressed in transfected cells
T3 sequence (P43004 whole entry): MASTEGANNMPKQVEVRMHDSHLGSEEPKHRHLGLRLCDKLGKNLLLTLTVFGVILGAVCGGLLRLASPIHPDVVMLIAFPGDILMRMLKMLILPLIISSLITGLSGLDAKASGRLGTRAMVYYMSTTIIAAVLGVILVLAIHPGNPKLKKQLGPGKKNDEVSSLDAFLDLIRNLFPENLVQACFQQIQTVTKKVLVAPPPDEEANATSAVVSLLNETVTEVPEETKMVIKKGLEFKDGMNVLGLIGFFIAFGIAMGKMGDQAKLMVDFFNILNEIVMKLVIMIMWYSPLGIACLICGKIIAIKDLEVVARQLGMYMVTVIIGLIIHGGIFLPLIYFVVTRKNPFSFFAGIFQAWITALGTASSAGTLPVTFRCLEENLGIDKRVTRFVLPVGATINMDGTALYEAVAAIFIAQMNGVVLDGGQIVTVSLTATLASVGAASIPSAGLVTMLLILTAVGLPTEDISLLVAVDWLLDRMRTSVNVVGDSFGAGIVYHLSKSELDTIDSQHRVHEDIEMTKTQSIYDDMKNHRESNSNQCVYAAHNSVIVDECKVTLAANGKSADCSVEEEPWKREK
Excerpt: as §1, §2

human EAAT1-3 = assay: [3H]-D-aspartate uptake assay, statements made for EAAT1-3 together; type: cell-based; details: for inhibitory activity at EAAT1-3 (in words): HEK293 cells expressing human EAAT1-3, [3H]-D-aspartate uptake; for drop in inhibitory potency across the subtypes: relative to the lead, EAAT1-3
Excerpt: as §1, §2

[1] = D-aspartate uptake, HEK293 cells stably expressing human EAAT1, analogs 3.1-3.12 (Table 2), read-out: EAAT1 IC50
[2] = D-aspartate uptake, HEK293 cells stably expressing human EAAT3, analogs 3.1-3.12 (Table 2), read-out: EAAT3 IC50
[3] = D-aspartate uptake, HEK293 cells stably expressing human EAAT2, analogs 3.1-3.12 (Table 2), read-out: EAAT2 IC50
[4] = [3H]-D-aspartate uptake, HEK293 cells stably expressing human EAAT1, analogs 1 and 2.1-2.40 (Table 1), read-out: EAAT1 IC50
[5] = [3H]-D-aspartate uptake, HEK293 cells stably expressing human EAAT3, analogs 1 and 2.1-2.40 (Table 1), read-out: EAAT3 IC50
[6] = [3H]-D-aspartate uptake, HEK293 cells stably expressing human EAAT2, analogs 1 and 2.1-2.40 (Table 1), read-out: EAAT2 IC50

| Structure (SMILES) | IC50 (human EAAT1; [1]) [µM] | IC50 (human EAAT3; [2]) [µM] | melting point | IC50 (human EAAT2; [3]) [µM] | inhibitory activity at EAAT1-3 (in words) (human EAAT1-3) | IC50 (human EAAT1; [4]) [µM] | IC50 (human EAAT3; [5]) [µM] | IC50 (human EAAT2; [6]) [µM] | drop in inhibitory potency across the subtypes (human EAAT1-3) | IC50 (human EAAT1) [µM] | IC50 (human EAAT3) [µM] | IC50 (human EAAT2) [µM] |
| --- | --- | --- | --- | --- | --- | --- | --- | --- | --- | --- | --- | --- |
| O=C(C1CC2CCC1C2)N1CCN(c2ccc(C(F)(F)F)cc2)CC1 (racemic) [(±)-endo-exo-3.2, (±)-endo-exo-Bicyclo[2.2.1]heptan-2-yl(4-(4-(trifluoromethyl)phenyl)piperazin-1-yl)methanone] | > 300 | > 300 | 126 to 127 °C (dec.) | > 300 | loss of inhibitory activity | – | – | – | – | – | – | – |
| O=C(C1CC2CCC1C2)N1CCN(c2cccc(O)c2)CC1 (racemic) [(±)-endo-exo-3.8, (±)-endo-exo-Bicyclo[2.2.1]heptan-2-yl(4-(3-hydroxyphenyl)piperazin-1-yl)methanone] | > 300 | > 300 | 187 to 189 °C (dec.) | > 300 | – | – | – | – | – | – | – | – |
| O=C(C1CCCCC1)N1CCN(c2cccc(C(F)(F)F)c2)CC1 [2.3, Cyclohexyl(4-(3-(trifluoromethyl)phenyl)piperazin-1-yl)methanone] | – | – | – | – | – | ~100 | ~100 | ~100 | 5-15 fold | – | – | – |
| O=C(c1ccccc1)N1CCN(c2cccc(C(F)(F)F)c2)CC1 [2.11, Phenyl(4-(3-(trifluoromethyl)phenyl)piperazin-1-yl)methanone] | – | – | – | – | – | ~150 | > 100 | > 100 | 5-15 fold | – | – | – |
| O=C(c1ccc2c(c1)OCO2)N1CCN(c2cccc(C(F)(F)F)c2)CC1 [2.12, Benzo[d][1,3]dioxol-5-yl(4-(3-(trifluoromethyl)phenyl)piperazin-1-yl)methanone] | – | – | 87 to 89 °C | – | – | > 100 | > 100 | > 100 | – | – | – | – |
| O=C(N1CCN(c2cccc(C(F)(F)F)c2)CC1)C1(c2ccccc2)CCCC1 [2.14, 1-Phenylcyclopentyl-(4-(3-(trifluoromethyl)phenyl)piperazin-1-yl)methanone] | – | – | 77 to 79 °C | – | – | – | – | – | – | > 300 | > 300 | > 300 |
| O=C(OCc1ccccc1)N1CCN(c2cccc(C(F)(F)F)c2)CC1 [2.32, Benzyl 4-(3-(trifluoromethyl)phenyl)piperazine-1-carboxylate] | – | – | – | – | neither the carbamate 2.32 nor the sulfonamide 2.33 analog displayed inhibitory activity | > 1000 | > 300 | > 300 | – | – | – | – |
| O=S(=O)(c1ccccc1)N1CCN(c2cccc(C(F)(F)F)c2)CC1 [2.33, 1-(Phenylsulfonyl)-4-(3-(trifluoromethyl)phenyl)piperazine] | – | – | 109 to 111 °C (dec.) | – | neither the carbamate 2.32 nor the sulfonamide 2.33 analog displayed inhibitory activity | > 1000 | > 1000 | > 300 | – | – | – | – |
